Laboratory results reported in patent publication US20240239813A1, “KRAS INHIBITORS AND PHARMACEUTICAL USES THEREOF” (RISEN (SUZHOU) PHARMA TECH CO., LTD., priority 2022, published 2024).

Assays:
[1] = tested on: MKN-1; assay: Cell proliferation assay (CellTiterGlo), MKN-1; type: cell-based; settings: Homo sapiens, MKN-1, 72 hours
Procedure: (§1) A cell proliferation assay was used to evaluate inhibition by exemplary compounds. Proliferation assays used human tissue derived cancer cell lines, for example, AsPC-1 (Cobioer, CBP60546), GP2D (Cobioer, CBP60683), NCI-H358 (Cobioer, CBP60544), NCI-H727 (Cobioer, CBP60182), MKN-1 (Cobioer, CBP60486), HCT116 (ATCC, CCL-247), and HT-29 (Cobioer, CBP60011). Signal reflecting cell proliferation was detected with the CellTiterGlo kit (Promega, G7573).
(§2) Cells were cultured in the growth phase and 3×10^3 cells per well were plated in a 96-well plate (Greiner, 655090). Cells were incubated 24 hours at 37° C. and 5% carbon dioxide in a humidity chamber. Serially diluted exemplary compounds were added to the plate which was then incubated for another 72 hours. Plates were brought to room temperature and an equal volume of CellTiterGlo reagent was added. After 10 minutes incubation at room temperature to stabilize the signal, the luminescent signal was measured on the VICTOR Nivo multimode plate reader according to the manufacturer's instructions. The signal was converted to percent inhibition using the following formula: […]
(§3) (where the “Maximum Signal” are wells containing DMSO without inhibitor; the “Minimum Signal” are signal of wells recorded at Day 0 prior to commencement of the experiment; the “Test compound signal” are wells containing inhibitor at established concentrations).
(§4) IC50 was determined by fitting percent inhibition at each inhibitor concentration to the four-parameter nonlinear logistic equation using GraphPad Prism. IC50 (nM) values of selected compounds are depicted in Table 4. “-”: means without measuring; and “ND” means not detected.

[2] = tested on: NCI-H358; assay: Cell proliferation assay (CellTiterGlo), NCI-H358; type: cell-based; settings: Homo sapiens, NCI-H358, 72 hours
Procedure: as §1, §2, §3, §4

[3] = biological target: His-tagged Human KRAS^G12D (Homo sapiens (Human), UniProt P01116, G12D); assay: HTRF KRAS G12D GTP binding assay; settings: displacement of GTP-Red tracer
His-tagged Human KRAS^G12D, sequence (P01116-2 other isoform, or with tags, fused parts or gaps G12D): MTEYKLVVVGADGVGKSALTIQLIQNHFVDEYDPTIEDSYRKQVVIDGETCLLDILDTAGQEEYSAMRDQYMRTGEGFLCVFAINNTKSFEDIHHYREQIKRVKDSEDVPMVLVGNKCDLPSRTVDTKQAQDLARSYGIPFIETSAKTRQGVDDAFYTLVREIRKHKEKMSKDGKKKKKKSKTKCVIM
Procedure: KRAS^G12D was used in this assay.
The ability of a test compound to bind to KRAS^G12D was measured by using an HTRF KRAS^G12D GTP Binding Kit (Cisbio, 63ADK000CB27PEG). […] 5 μL of compound solution was added to each well after serial dilution, followed by addition of 5 μL of GDP (50 nM) solution. After 30 minutes incubation at room temperature, 1×6His Eu cryptate antibody solution and GTP-Red tracer were added to the plate, then incubated for another 30 minutes. The HTRF signal was measured with a VICTOR Nivo multimode plate reader according to the manufacturer's instructions. The percent inhibition was calculated using the following formula: […]
(where the “Maximum Signal” are wells containing DMSO without inhibitor; the “Minimum Signal” are wells containing reference inhibitory component (GDP); the “Test compound signal” are wells containing test compound (inhibitor) at established concentrations).
IC50 was determined by fitting percent inhibition at each inhibitor concentration to the four-parameter nonlinear logistic equation using GraphPad Prism.

[4] = tested on: NCI-H727; assay: Cell proliferation assay (CellTiterGlo), NCI-H727; type: cell-based; settings: Homo sapiens, NCI-H727, 72 hours
Procedure: as §1, §2, §3, §4

[5] = tested on: GP2D; assay: Cell proliferation assay (CellTiterGlo), GP2D; type: cell-based; settings: Homo sapiens, 72 hours
Procedure: as §1, §2, §3, §4

[6] = Microsomal stability assay, rat liver microsomes; type: in vitro ADME; settings: SD, pooled rat liver microsomes, 0.5 mg/mL protein
Procedure: (§5) Test results from this assay were used to determine the metabolic liabilities of test compounds and allow focus on the improvement of drug candidates through structure-activity relationships. Pooled mouse/rat/human liver microsomes were used for this assay
(§6) In vitro mouse (CD-1, BioIVT)/rat (SD, RILD)/human (Corning) liver microsomal suspensions at 0.5 mg/mL protein and 1.3 mM NADPH, 3.3 mM MgCl2 were pre incubated at 37° C. for 3 mins prior to addition of 0.1 mM test compound solution to give a final incubation concentration of 1 μM. Samples were incubated for 0, 15, 30, 60 minutes at 37° C. on a shaker (the positive control substance was cultured for 0 or 60 minutes). At the end of each incubation time both incubated and control samples were quenched with ice-cold stop solution containing internal standard. All samples were mixed by a plate shaker at 800 rpm for 5 minutes, then centrifuged at 4100 rpm for 15 minutes at 4° C. to precipitate protein. Supernatant was transferred to another 96-well plate, dilution solution was added to each supernatant well, and then each bioanalysis plate was sealed. The samples were mixed by plate shaker at 800 rpm for 5 minutes and then centrifuged at 4° C., 4100 rpm for 5 minutes. All samples were stored at 4° C. before LC-MS/MS analysis.
(§7) The peak area ratio was converted to the remaining percentages (% Remaining) using the following formula: […]
(§8) where % Remaining is the compound ratio (compound peak area/internal standard peak area) as a percentage of the 0 minute time point.
(§9) The ln remaining percent of test articles were plotted against time and the gradient of the line determined; the gradient was converted to elimination rate constant by using the following formula:
(§10) Elimination rate constant(ke)=−gradient
(§11) Half time (T1/2) was determined using following formula: […]
(§12) Hepatic intrinsic clearance (CLint(liver)) was determined by using the following formulas: […]
(§13) The Intrinsic clearance of selected compounds is depicted in Table 6.

[7] = Microsomal stability assay, human liver microsomes; type: in vitro ADME; settings: pooled human liver microsomes, 0.5 mg/mL protein
Procedure: as §5, §6, §7, §8, §9, §10, §11, §12, §13

[8] = Microsomal stability assay, mouse liver microsomes; type: in vitro ADME; settings: CD-1, pooled mouse liver microsomes, 0.5 mg/mL protein
Procedure: as §5, §6, §7, §8, §9, §10, §11, §12, §13

[9] = tested on: AsPC-1; assay: Cell proliferation assay (CellTiterGlo), AsPC-1; type: cell-based; settings: Homo sapiens, ASPC1, AsPC-1, 72 hours
Procedure: as §1, §2, §3, §4

[10] = tested on: HCT-116; assay: Cell proliferation assay (CellTiterGlo), HCT-116; type: cell-based; settings: Homo sapiens, HCT-116, 72 hours
Procedure: as §1
(§14) Cells were cultured in the growth phase and 3×10^3 cells per well were plated in a 96-well plate (Greiner, 655090). Cells were incubated 24 hours at 37° C. and 5% carbon dioxide in a humidity chamber. […] After 10 minutes incubation at room temperature to stabilize the signal, the luminescent signal was measured on the VICTOR Nivo multimode plate reader according to the manufacturer's instructions. […]
as §3
(§15) IC50 was determined by fitting percent inhibition at each inhibitor concentration to the four-parameter nonlinear logistic equation using GraphPad Prism. […] “-”: means without measuring; and “ND” means not detected.

[11] = tested on: HT-29; assay: Cell proliferation assay (CellTiterGlo), HT-29; type: cell-based; settings: Homo sapiens, HT-29, 72 hours
Procedure: as §1, §14, §3, §15

| Structure (SMILES) | IC50 [1] [nM] | IC50 [2] [nM] | IC50 [3] [nM] | IC50 [4] [nM] | CLint scaled at 1 μM [6] [mL/min/kg] | CLint scaled at 1 μM [7] [mL/min/kg] | CLint scaled at 1 μM [8] [mL/min/kg] | IC50 [9] [nM] | IC50 [10] [nM] | IC50 [11] [nM] | IC50 [5] [nM] |
| --- | --- | --- | --- | --- | --- | --- | --- | --- | --- | --- | --- |
| CCc1c(F)ccc2cc(O)cc(-c3ncc4c(N5CC[C@@H](O)C5)nc(OC[C@@]56CCCN5C[C@H](F)C6)nc4c3F)c12 [Compound 1] | 4090 | 3210 | 261 | 1870 | – | – | – | – | – | – | 4220 |
| CCc1c(F)ccc2cc(O)cc(-c3ncc4c(N5C[C@H](O)C[C@H]5CO)nc(OC[C@@]56CCCN5C[C@H](F)C6)nc4c3F)c12 [Compound 2] | > 10000 | 6320 | 185 | > 10000 | – | – | – | – | – | – | 1320 |
| CCc1c(F)ccc2cc(O)cc(-c3ncc4c(N5CCCC6(CCO6)C5)nc(OCC5(CN6CCOCC6)CC5)nc4c3F)c12 (stereo not shown) [Compound 2a] | – | – | 18.8 | – | 887 | 402 | 2630 | – | – | – | – |
| CCc1c(F)ccc2cc(O)cc(-c3ncc4c(N5CCC[C@H]5CO)nc(OC[C@@]56CCCN5C[C@H](F)C6)nc4c3F)c12 [Compound 3] | 1780 | 1660 | – | 1080 | – | – | – | – | – | – | 1570 |
| CCc1c(F)ccc2cc(O)cc(-c3ncc4c(N5C[C@H](O)C[C@H]5C(=O)OC)nc(OC[C@@]56CCCN5C[C@H](F)C6)nc4c3F)c12 [Compound 4] | 7880 | 6600 | > 1000 | 4040 | – | – | – | – | – | – | 1630 |
| CCc1c(F)ccc2cc(O)cc(-c3ncc4c(N5CCC[C@H]5C(N)=O)nc(OC[C@@]56CCCN5C[C@H](F)C6)nc4c3F)c12 [Compound 6] | > 10000 | > 10000 | 1390 | > 10000 | – | – | – | – | – | – | – |
| CCc1c(F)ccc2cc(O)cc(-c3ncc4c(N5CCC[C@H]5C(=O)OC)nc(OC[C@@]56CCCN5C[C@H](F)C6)nc4c3F)c12 [Compound 7] | > 10000 | 7980 | > 1000 | 5310 | – | – | – | – | – | – | – |
| CCc1c(F)ccc2cc(O)cc(-c3ncc4c(N5CCC[C@]6(CCO6)C5)nc(OCC5(CN6CCCCC6)CC5)nc4c3F)c12 [Compound 9a] | – | 18.5 | 7.9 | 15 | – | – | – | 20.1 | – | – | 1.6 |
| CCc1c(F)ccc2cc(O)cc(-c3ncc4c(N5CCC[C@]6(CCO6)C5)nc(OCC5(CN6CCCC6)CC5)nc4c3F)c12 [Compound 10a] | – | 18.7 | 6.9 | 17 | 46.4 | 42.5 | 671 | 16 | – | – | 1.8 |
| CCc1c(F)ccc2cc(O)cc(-c3ccc4c(N5CCC[C@]6(CCO6)C5)nc(OCC5(CN(C)C)CC5)nc4c3F)c12 [Compound 15a] | – | – | 19.6 | – | 52.9 | 31.8 | 371 | – | – | – | – |

Continued, in another order:

| IC50 [1] [nM] | IC50 [2] [nM] | IC50 [3] [nM] | IC50 [4] [nM] | CLint scaled at 1 μM [6] [mL/min/kg] | CLint scaled at 1 μM [7] [mL/min/kg] | CLint scaled at 1 μM [8] [mL/min/kg] | IC50 [9] [nM] | IC50 [10] [nM] | IC50 [11] [nM] | Structure (SMILES) | IC50 [5] [nM] |
| --- | --- | --- | --- | --- | --- | --- | --- | --- | --- | --- | --- |
| – | 98.5 | 13.3 | 37.4 | – | – | – | 30.8 | – | – | CCc1c(F)ccc2cc(O)cc(-c3ncc4c(N5CCC[C@]6(CCO6)C5)nc(OCC(C)(C)CN(C)C)nc4c3F)c12 [Compound 26a] | 4.5 |
| – | 40.5 | 12.7 | 24.8 | – | – | – | 32 | – | – | CCc1c(F)ccc2cc(O)cc(-c3ncc4c(N5CCC[C@]6(CCO6)C5)nc(OCC5(CN(CC)CC)CC5)nc4c3F)c12 [Compound 27a] | 3.07 |
| – | 25.1 | 4.3 | 14.7 | 410 | 181 | 1040 | 25 | – | – | CCc1c(F)ccc2cc(O)cc(-c3ncc4c(N5CCC[C@]6(CCO6)C5)nc(OCC5(CN6CCC(F)CC6)CC5)nc4c3F)c12 [Compound 29a] | 2.3 |
| – | 23.7 | 3.1 | 13.7 | 29.2 | 26.3 | 255 | 21.6 | – | – | CCc1c(F)ccc2cc(O)cc(-c3ncc4c(N5CCC[C@]6(CCO6)C5)nc(OCC5(CN(C)C)CC5)nc4c3F)c12 [Compound 34a] | 1.4 |
| – | – | – | – | 311 | 124 | 2270 | – | – | – | CCc1c(F)ccc2cc(O)cc(-c3ncc4c(N5CCC[C@]6(CCO6)C5)nc(OC[C@@]56CCCN5C[C@H](F)C6)nc4c3F)c12 [Compound 68] | – |
| – | – | 10.7 | – | 51.1 | 32.4 | 361 | – | – | – | CCc1c(F)ccc2cc(O)cc(-c3ncc4c(N5CCCC6(CCO6)C5)nc(OCC5(CN(C)C)CC5)nc4c3F)c12 (stereo not shown) [Compound 73] | – |
| 144 | 152 | – | 130 | 111 | 46 | 1180 | 161 | 1430 | 7730 | CCc1c(F)ccc2cc(O)cc(-c3ncc4c(N5CCCC(C)(O)C5)nc(OC[C@@]56CCCN5C[C@H](F)C6)nc4c3F)c12 (stereo partly shown) [Compound A1, reference compound] | 15.7 |
